Where a name gives a salt, the structure may show the parent alone. Marks after values point to notes of the source that are not given here.
What was measured:
[1] = system: PTZ-induced epilepsy in ICR mice; test: Pentylenetetrazole (PTZ) induced epilepsy in mice; type: in vivo, mouse; conditions: Retigabine 60 mg/kg
Description: • Animals: male ICR mice; • Medicines: Pentylenetetrazol (PTZ), Retigabine, Protein BD-11.
Experiment grouping: • Model group; • Retigabine 60 mg/kg group; • Protein BD-11, 50 mg/kg group, 200 mg/kg group;
The drug was administered once in the afternoon the day before modeling, On the day of modeling, PTZ-65 mg/kg (modeling agent) was injected intraperitoneal 1 hour after the test drug was administered intragastrically, and the positive drug can be administered once half an hour before modeling. Continue to observe for 15 minutes after injection of PTZ.
Observation index: ①Seizure situation: the time of seizures from Grade III to […]; ②Death situation
(§1) Seizure grade: Refer to Racine grading standard: Grade 0: No response; Grade I: manifested as twitching of facial muscles or the corners of the mouth; Grade II: can nod; Grade III: twitching of one limb; Grade IV: rigidity or body twitching; Grade V: generalized epilepsy (generalized tonic seizures).
Count the cases of seizures and deaths in each group of mice in the experiment; Grade III and IV incubation period. The incubation period of mice that have not attacked to Grade IV is recorded as the maximum of 900 seconds. Chi-square test was used for statistics of the number of cases. Calculate the mean and standard error of the incubation period. Use TTEST to compare the model group with other groups, and P<0.05 is considered as a significant difference.

[2] = system: ammonia water induced cough in ICR mice; test: Antitussive test, cough induced by ammonia water in mice; type: in vivo, mouse
Description: • Animals: male ICR mice; • Drugs and reagents: dextromethorphan hydrobromide, ammonia water, 0.2% CMC-Na, protein BD-11; • Apparatus: Compressed nebulizer (403T type), balance (XS105DU type).
Experiment grouping: • Solvent control group; • Dextromethorphan 15 mg/kg group; • Protein BD-11, 20 mg/kg group, 50 mg/kg group.
Dextromethorphan and different doses of protein BD-11 (administration volume 10 ml/kg) were given orally in groups, and the solvent control group was given the same volume of distilled water. One hour later, mice were put into a sealed box and atomized 10% ammonia water for 10 seconds, and then observed and recorded the incubation period of cough in mice and the number of coughs in 2 minutes.
Record the time point of oral administration, the time point of atomization experiment, the incubation period of mice cough and the number of coughs within 2 minutes, respectively. The incubation period of cough refers to the number of seconds from the start of the atomization of ammonia to the occurrence of cough. The performance of coughing in mice is based on contraction of their abdominal muscles (breast contraction) and opening their mouths at the same time. Calculate the mean and standard error of each group of data, and use TTEST to compare the model group with other groups, and P<0.05 is considered as a significant difference.
Give dextromethorphan (15 mg/kg) and different doses of protein BD-11 (20 mg/kg, 50 mg/kg) in advance, One hour later, the mice were put into a sealed box and atomized 10% ammonia water for 10 seconds, and then the mice were observed and recorded the incubation period of coughing and the number of coughs within 2 minutes.

[3] = system: PLO-induced epilepsy in ICR mice; test: Pilocarpine (PLO) induced convulsive epilepsy in mice; type: in vivo, mouse; design: mortality rate: unit not given here; conditions: Diazepam 2 mg/kg
Description: • Animals: male ICR mice; • Drugs: Pilocarpine HCl (PLO, pilocarpine, pilocarpine hydrochloride), Diazepam (diazepam tablets), protein BD-11.
Experiment grouping: • Model group: • Diazepam 2 mg/kg group; • Protein BD-11, 50 mg/kg group, 200 mg/kg group.
The drug was administered once in the afternoon the day before modeling, PLO-225 mg/kg (modeling agent) was injected intraperitoneally 1 hour after the test drug was administered intragastrically on the day of modeling. And positive drug can be administered once 20 minutes before modeling. Observe for 30 minutes after PLO injection.
Observation indicators: ①Seizure situation: the time of seizures from Grade II to Grade IV; (2)the time to death.
as §1
Count the number of Grade IV seizures and deaths in each group of mice in the experiment; Grade II, III and IV incubation period. […] Chi-square test was used for statistics of the number of cases. The mean value and standard error of the incubation period were calculated, and TTEST was used to compare the model group with other groups. P<0.05 was considered as a significant difference.

[4] = system: lipopolysaccharide (LPS) induced fever in SD rats; test: Lipopolysaccharide (LPS) induced fever model in SD rats; type: in vivo, rat; conditions: aspirin 300 mg/kg oral
Description: • Animals: 230-260 grams of male SD rats; • Drugs: lipopolysaccharide (LPS, SIGMAL-2880), aspirin (SIGMA A2093), protein BD-11; • Instruments: electronic balance (SARTORIUS BP121S type), electronic clinical thermometer (CITIZEN CT-513W type).
Experiment grouping: • Normal control group; • Model group: lipopolysaccharide fever model; • Positive control group: Aspirin 300 mg/kg group; • Protein BD-11, 10 mg/kg group, 50 mg/kg group. Method: the method of intraperitoneal injection of Lipopolysaccharide to replicate rat fever model.
(§2) Preparation of experimental animals: After the experimental animals adapt to the experimental environment (temperature 22° C.±2° C., relative humidity 50%±2%) for 1 day. Pre-adaptation to measure rectal temperature at 8:00 and 15:00, rats were fasted and water was taken freely 12 h before experiment, and let the animal to empty its feces before measuring the rectal temperature. Apply petroleum jelly to the electronic thermometer probe before each temperature measurement. Insert the rat rectum 2 cm (can be marked at 2 cm to ensure that the depth of each insertion is consistent), and record the body temperature after the reading is stable.
Intraperitoneal injection of lipopolysaccharide to replicate rat fever model: The body temperature of the rats was measured before modeling. Qualified rats with a body temperature of 36.2-37.3° C. were selected and randomly divided into groups with 8 rats in each group. After oral administration of aspirin and different doses of protein BD-11, lipopolysaccharide (20 µg/kg, 2 ml/kg) was injected intraperitoneally immediately, and the normal control group was injected intraperitoneally with an equal volume of normal saline. The body temperatures of the rats were monitored after 2 hours for a total of 8 hours.
(§3) According to the body temperature measured at each time point on the day of the experiment, calculate the mean, standard deviation and standard error of the body temperature of each group of rats. The data of each group was compared with TTEST, and P<0.05 was considered as a significant difference.
Immediately after oral administration of aspirin (300 mg/kg), protein BD-11 (10 mg/kg, 50 mg/kg), intraperitoneal injection of 20 µg/kg lipopolysaccharide was performed to establish a model. The animal body temperature was monitored at 2 hours, 4 hours, 6 hours, and 8 hours after modeling.

[5] = system: yeast-induced fever model in SD rats; test: Yeast-induced fever model in SD rats; type: in vivo, rat; conditions: aspirin 300 mg/kg oral
Description: • Animals: 230-260 grams of male SD rats;; • Drugs: yeast (OXOID LP0021), aspirin (SIGMA A2093), protein BD-11; • Instruments: electronic balance (SARTORIUS BP121S type), electronic clinical thermometer (CITIZEN CT-513W type).
Experiment grouping: • Normal control group; • Model group: yeast fever model; • Positive control group: Aspirin 300 mg/kg group; • Protein BD-11, 10 mg/kg group, 50 mg/kg group.
as §2
Subcutaneous injection of dry yeast to replicate rat fever model: The body temperature of the rats was measured before modeling. Qualified rats with a body temperature of 36.2-37.3° C. were selected and randomly divided into groups with 8 rats in each group. After oral administration of aspirin and different doses of protein BD-11, 20% yeast suspension (10 ml/kg) was injected subcutaneously immediately, and the normal control group was injected intraperitoneally with an equal volume of normal saline. The body temperatures of the rats were monitored after 2 hours for a total of 8 hours.
as §3
Immediately after oral administration of aspirin (300 mg/kg), protein BD-11 (10 mg/kg, 50 mg/kg), subcutaneous injection of 20% yeast was performed to establish a model. The animal body temperature was monitored at 2 hours, 4 hours, 6 hours, and 8 hours after modeling.

[6] = system: acetic acid writhing in ICR mice; test: Acetic acid writhing test in ICR mice; type: in vivo, mouse
Description: • Animals: male ICR mice; • Drugs and reagents: aspirin, physiological saline, glacial acetic acid, protein BD-11.
Experiment grouping: • Model group; • Aspirin 300 mg/kg group; • Protein BD-11, 50 mg/kg group, 200 mg/kg group.
One day after the experimental animals adapt to the environment, Aspirin 300 mg/kg, protein BD-11 50 mg/kg, 200 mg/kg were given orally one hour in advance, and the administration volume was 10 ml/kg; Then, 0.6% acetic acid solution was injected intraperitoneally, and the incubation period (seconds) and frequency of writhing in the animal was observed within 15 minutes.
Calculate the mean and standard error of the data in each group. Compared with the model group by TTEST, P<0.05 was considered as statistically different.
One hour after oral administration of aspirin 300 mg/kg and different doses of protein BD-11 (50 mg/kg, 200 mg/kg), 0.6% acetic acid solution was intraperitoneally injected to observe the writhing incubation period and frequency of ICR mice.
0.6% acetic acid solution was injected into the abdominal cavity of mice, which caused deep and large area and long-term painful stimulation, causing the mice to writhe (the abdomen was contracted into an “S” shape, the trunk and hind legs were stretched, the buttocks were raised and creeping). The incubation time to start writhing and times of writhing in mice were used as the pain response indexs to determine whether the test sample had analgesic effect. […] Compared with the model group, P<0.05, which is statistically significant.

[7] = 2, 4, 6 and 8 hours after modeling, P<0.05 vs model group
[8] = Aspirin 300 mg/kg, P<0.05 vs model group

Structure (SMILES): CCOC(=O)Nc1ccc(NCc2ccc(F)cc2)cc1N [Retigabine, reference compound]
- Cases of deaths ([1]; PTZ 65 mg/kg i.p., 10 mice): 0
- Grade IV seizure rate ([1]; PTZ 65 mg/kg i.p., 10 mice): 20%**
- mortality rate ([1]; PTZ 65 mg/kg i.p., 10 mice): 0
- Cases of Grade IV ([1]; PTZ 65 mg/kg i.p., 10 mice, 15 min observation): 2**
- Grade III seizure incubation period ([1]; PTZ model, mean±SEM): 83 ± 7 s
- Grade IV seizure incubation period ([1]; PTZ model, mean±SEM, no Grade IV recorded as maximum 900 s): 745 ± 103 s

Structure (SMILES): COc1ccc2c(c1)[C@]13CCCC[C@@H]1[C@H](C2)N(C)CC3 [Dextromethorphan, dextromethorphan hydrobromide, reference compound]
- Incubation period (cough) ([2]; Dextromethorphan 15 mg/kg oral, 10% ammonia water 10 s, X±SEM, n=9): 38.4 ± 4.5 s
- Number of coughs ([2]; Dextromethorphan 15 mg/kg oral, within 2 minutes, X±SEM, n=9): 34.0±2.9
- Incubation period and number of coughs vs solvent control group ([2]; dextromethorphan 15 mg/kg, P<0.05): significant improvement

Structure (SMILES): CN1C(=O)CN=C(c2ccccc2)c2cc(Cl)ccc21 [Diazepam, reference compound]
- Cases of deaths ([3]; PLO 225 mg/kg i.p., 10 mice): 0
- Grade IV seizure rate ([3]; PLO 225 mg/kg i.p., 10 mice): 0**
- mortality rate ([3]; PLO 225 mg/kg i.p., 10 mice): 0
- Cases of Grade IV ([3]; PLO 225 mg/kg i.p., 10 mice, 30 min observation): 0**
- Grade II seizure incubation period ([3]; PLO model, mean±SEM): 109 ± 8 s
- Grade III seizure incubation period ([3]; PLO model, mean±SEM): 182 ± 14 s
- Grade IV seizure incubation period ([3]; PLO model, mean±SEM, no Grade IV recorded as maximum 1800 s): 1800 ± 0 s

Structure (SMILES): CC(=O)Oc1ccccc1C(=O)O [aspirin, reference compound]
- Effect on the increase in body temperature of model rats [4, 7]: can effectively inhibit the increase in body temperature
- Body temperature 2 hours after modeling ([4]; 2 h after LPS 20 µg/kg i.p., n=8): 36.8 ± 0.1 °C
- Body temperature 4 hours after modeling ([4]; 4 h after LPS 20 µg/kg i.p., n=8): 36.9### °C
- Body temperature 6 hours after modeling ([4]; 6 h after LPS 20 µg/kg i.p., n=8): 36.8## °C
- Body temperature 8 hours after modeling ([4]; 8 h after LPS 20 µg/kg i.p., n=8): 36.9±0.1 °C
- Effect on the increase in body temperature of model rats [5, 7]: can effectively inhibit the increase in body temperature
- Body temperature 2 hours after modeling ([5]; 2 h after 20% yeast s.c., n=8): 37.0 ±0.1 °C
- Body temperature 4 hours after modeling ([5]; 4 h after 20% yeast s.c., n=8): 37.0±0.1 °C
- Body temperature 6 hours after modeling ([5]; 6 h after 20% yeast s.c., n=8): 37.0±0.1 °C
- Body temperature 8 hours after modeling ([5]; 8 h after 20% yeast s.c., n=8): 37.0±0.1 °C
- Effect on incubation period of writhing [6, 8]: significantly delay
- Effect on times of writhing [6, 8]: reduce the times of writhing
- Writhing incubation period ([6]; aspirin 300 mg/kg oral, 0.6% acetic acid i.p., n=13): 290.3 ± 37.0 s
- Frequency of writhing ([6]; aspirin 300 mg/kg oral, within 15 minutes, n=13): 15.2 ± 2.9 times
